Measured values as given in US12077503B2, “Substituted cyclic amides and their use as herbicides” (FMC CORPORATION, priority 2015, dated 2024).
Where two headings read alike, the source gives them in different places.

Tests used:
Format in all cases: in vivo
corn (Zea mays) = experiment: Test A postemergence; conditions: Zea mays, post-emergence, 240 h, Postemergence; for plant injury at 125 g/ha: 125 g ai/ha, visual rating about 10 d after treatment, read-out: Corn plant response rating (0 to 100 scale); for Corn plant response rating (crop injury, 0 = no effect, 100 = complete kill) at 500 g/ha: 500 g ai/ha, visual injury, 0 to 100 scale (0 no effect, 100 complete control), approx. 10 d
How it was run: (§1)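 Each rating is a visual injury score from 0 to 100 given about 10 d after treatment, judged against untreated controls kept alongside in the greenhouse. In loam soil–sand blend, seeds got a preemergence directed soil spray, while postemergence plants were 2 to 10 cm tall at spraying.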

[1] = system: Galium (catchweed bedstraw, Galium aparine); experiment: Test A postemergence; conditions: Galium, post-emergence, 240 h, Postemergence; for pest or weed control at 125 g/ha: 125 g ai/ha, visual rating about 10 d after treatment, read-out: Galium plant response rating (0 to 100 scale); for pest or weed control at 500 g/ha: 500 g ai/ha, visual injury, 0 to 100 scale (0 no effect, 100 complete control), approx. 10 d, read-out: Plant response rating, Galium
How it was run: as §1

[2] = system: ragweed (common ragweed, Ambrosia elatior); experiment: Test A postemergence; conditions: Ambrosia artemisiifolia, post-emergence, 240 h, Postemergence; for pest or weed control at 125 g/ha: 125 g ai/ha, visual rating about 10 d after treatment, read-out: Ragweed plant response rating (0 to 100 scale); for pest or weed control at 500 g/ha: 500 g ai/ha, visual injury, 0 to 100 scale (0 no effect, 100 complete control), approx. 10 d, read-out: Plant response rating, Ragweed
How it was run: as §1

[3] = system: blackgrass (Alopecurus myosuroides); experiment: Test A postemergence; conditions: Alopecurus myosuroides, post-emergence, 240 h, Postemergence; for pest or weed control at 125 g/ha: 125 g ai/ha, visual rating about 10 d after treatment, read-out: Blackgrass plant response rating (0 to 100 scale); for pest or weed control at 500 g/ha: 500 g ai/ha, visual injury, 0 to 100 scale (0 no effect, 100 complete control), approx. 10 d, read-out: Plant response rating, Blackgrass
How it was run: as §1

[4] = system: pigweed (Amaranthus retroflexus); experiment: Test A postemergence; conditions: Amaranthus retroflexus, post-emergence, 240 h, Postemergence; for pest or weed control at 125 g/ha: 125 g ai/ha, visual rating about 10 d after treatment, read-out: Pigweed plant response rating (0 to 100 scale); for pest or weed control at 500 g/ha: 500 g ai/ha, visual injury, 0 to 100 scale (0 no effect, 100 complete control), approx. 10 d, read-out: Plant response rating, Pigweed
How it was run: as §1

[5] = system: wheat (Triticum aestivum); experiment: Test A postemergence; conditions: Triticum aestivum, post-emergence, 240 h, Postemergence; for plant injury at 125 g/ha: 125 g ai/ha, visual rating about 10 d after treatment, read-out: Wheat plant response rating (0 to 100 scale); for plant injury at 500 g/ha: 500 g ai/ha, visual injury, 0 to 100 scale (0 no effect, 100 complete control), approx. 10 d, read-out: Plant response rating, Wheat
How it was run: as §1

[6] = system: ryegrass, Italian (Italian ryegrass, Lolium multiflorum); experiment: Test A postemergence; conditions: Lolium multiflorum, post-emergence, 240 h, Postemergence; for pest or weed control at 125 g/ha: 125 g ai/ha, visual rating about 10 d after treatment, read-out: Ryegrass, Italian plant response rating (0 to 100 scale); for pest or weed control at 500 g/ha: 500 g ai/ha, visual injury, 0 to 100 scale (0 no effect, 100 complete control), approx. 10 d, read-out: Plant response rating, Ryegrass, Italian
How it was run: as §1

Kochia (Kochia scoparia) [7] = experiment: Test A postemergence; conditions: Bassia scoparia, post-emergence, 240 h, Postemergence; for pest or weed control at 125 g/ha: 125 g ai/ha, visual rating about 10 d after treatment, read-out: Kochia plant response rating (0 to 100 scale); for pest or weed control at 500 g/ha: 500 g ai/ha, visual injury, 0 to 100 scale (0 no effect, 100 complete control), approx. 10 d, read-out: Plant response rating, Kochia
How it was run: as §1

[8] = system: giant foxtail (Setaria faberii); experiment: Test A postemergence; conditions: Setaria faberi, post-emergence, 240 h, Postemergence; for pest or weed control at 125 g/ha: 125 g ai/ha, visual rating about 10 d after treatment, read-out: Foxtail, Giant plant response rating (0 to 100 scale); for pest or weed control at 500 g/ha: 500 g ai/ha, visual injury, 0 to 100 scale (0 no effect, 100 complete control), approx. 10 d, read-out: Plant response rating, Foxtail, Giant
How it was run: as §1

[9] = system: ragweed (common ragweed, Ambrosia elatior); experiment: Test A preemergence; conditions: Ambrosia artemisiifolia, pre-emergence, 240 h; for pest or weed control at 500 g/ha: 500 g ai/ha, preemergence
How it was run: as §1

[10] = system: pigweed (Amaranthus retroflexus); experiment: Test A preemergence; conditions: Amaranthus retroflexus, pre-emergence, 240 h; for pest or weed control at 500 g/ha: 500 g ai/ha, preemergence; for pest or weed control at 125 g/ha: Preemergence, 125 g ai/ha
[11] = system: barnyardgrass (Echinochloa crus-galli); experiment: Test A preemergence; conditions: Echinochloa crus-galli, pre-emergence, 240 h; for pest or weed control at 500 g/ha: 500 g ai/ha, preemergence; for pest or weed control at 125 g/ha: Preemergence, 125 g ai/ha
How it was run: as §1

[12] = system: ryegrass, Italian (Italian ryegrass, Lolium multiflorum); experiment: Test A preemergence; conditions: Lolium multiflorum, pre-emergence, 240 h, 0 to 100 scale (0 no effect, 100 complete control), read-out: Plant response rating, Ryegrass, Italian; for pest or weed control at 125 g/ha: Preemergence, 125 g ai/ha
How it was run: as §1

Kochia (Kochia scoparia) [13] = experiment: Test A preemergence; conditions: Bassia scoparia, pre-emergence, 240 h; for pest or weed control at 500 g/ha: 500 g ai/ha, preemergence
How it was run: as §1

[14] = 0 to 100 scale (0 no effect, 100 complete control), read-out: Plant response rating, Pigweed
[15] = 0 to 100 scale (0 no effect, 100 complete control), read-out: Plant response rating, Barnyardgrass

Cc1cc([C@H]2CN(C)C(=O)[C@@H]2C(=O)Nc2cccc(F)c2C)ccc1F [Compound 1311]
plant injury at 125 g/ha (corn (Zea mays)): 70% | Corn plant response rating (crop injury, 0 = no effect, 100 = complete kill) at 500 g/ha (corn (Zea mays)): 80% | pest or weed control at 125 g/ha [1]: 50% | pest or weed control at 500 g/ha [1]: 60% | pest or weed control at 125 g/ha [2]: 0% | pest or weed control at 500 g/ha [2]: 30% | pest or weed control at 125 g/ha [3]: 60% | pest or weed control at 500 g/ha [3]: 60% | pest or weed control at 125 g/ha [4]: 0% | pest or weed control at 500 g/ha [4]: 20% | plant injury at 125 g/ha [5]: 60% | plant injury at 500 g/ha [5]: 80% | pest or weed control at 125 g/ha [6]: 40% | pest or weed control at 500 g/ha [6]: 80% | pest or weed control at 125 g/ha (Kochia (Kochia scoparia) [7]): 30% | pest or weed control at 500 g/ha (Kochia (Kochia scoparia) [7]): 50% | pest or weed control at 125 g/ha [8]: 90% | pest or weed control at 500 g/ha [8]: 90% | pest or weed control at 500 g/ha ([9]; 0 to 100 scale where 0 is no effect and 100 is complete control, read-out: Ragweed plant response rating): 90% | pest or weed control at 500 g/ha ([10]; 0 to 100 scale where 0 is no effect and 100 is complete control, read-out: Pigweed plant response rating): 20% | pest or weed control at 125 g/ha [10, 14]: 0% | pest or weed control at 500 g/ha ([11]; 0 to 100 scale where 0 is no effect and 100 is complete control, read-out: Barnyardgrass plant response rating): 100% | pest or weed control at 125 g/ha [11, 15]: 100% | pest or weed control at 125 g/ha [12]: 70% | pest or weed control at 500 g/ha (Kochia (Kochia scoparia) [13]; 0 to 100 scale where 0 is no effect and 100 is complete control, read-out: Kochia plant response rating): 100% | pest or weed control at 125 g/ha (Kochia (Kochia scoparia) [13]; Preemergence, 125 g ai/ha, 0 to 100 scale (0 no effect, 100 complete control), read-out: Plant response rating, Kochia): 70%

COc1cc(OC)cc([C@H]2CN(C)C(=O)[C@@H]2C(=O)Nc2cccc(F)c2F)c1 [Compound 1370]
plant injury at 125 g/ha (corn (Zea mays)): 30% | Corn plant response rating (crop injury, 0 = no effect, 100 = complete kill) at 500 g/ha (corn (Zea mays)): 80% | pest or weed control at 125 g/ha [1]: 40% | pest or weed control at 500 g/ha [1]: 50% | pest or weed control at 125 g/ha [2]: 0% | pest or weed control at 500 g/ha [2]: 30% | pest or weed control at 125 g/ha [3]: 50% | pest or weed control at 500 g/ha [3]: 80% | pest or weed control at 125 g/ha [4]: 0% | pest or weed control at 500 g/ha [4]: 30% | plant injury at 125 g/ha [5]: 40% | plant injury at 500 g/ha [5]: 70% | pest or weed control at 125 g/ha [6]: 40% | pest or weed control at 500 g/ha [6]: 70% | pest or weed control at 125 g/ha (Kochia (Kochia scoparia) [7]): 50% | pest or weed control at 500 g/ha (Kochia (Kochia scoparia) [7]): 50% | pest or weed control at 125 g/ha [8]: 90% | pest or weed control at 500 g/ha [8]: 90% | pest or weed control at 500 g/ha ([9]; 0 to 100 scale (0 no effect, 100 complete control), read-out: Plant response rating, Ragweed): 80% | pest or weed control at 125 g/ha ([9]; Preemergence, 125 g ai/ha, 0 to 100 scale (0 no effect, 100 complete control), read-out: Plant response rating, Ragweed): 40% | pest or weed control at 500 g/ha [10, 14]: 20% | pest or weed control at 125 g/ha [10, 14]: 0% | pest or weed control at 500 g/ha [11, 15]: 90% | pest or weed control at 125 g/ha [11, 15]: 90% | pest or weed control at 500 g/ha ([12]; 500 g ai/ha, preemergence): 90% | pest or weed control at 125 g/ha [12]: 80% | pest or weed control at 500 g/ha (Kochia (Kochia scoparia) [13]; 0 to 100 scale (0 no effect, 100 complete control), read-out: Plant response rating, Kochia): 80%
